Test results reported in patent US20230190616A1, “COMPOUNDS USEFUL FOR THE TREATMENT AND/OR CARE OF THE SKIN, HAIR, NAILS AND/OR MUCOUS MEMBRANES” (LUBRIZOL ADVANCED MATERIALS, INC., priority 2018, published 2023).

Tests used:
[1] = test system: human subcutaneous pre-adipocytes; experiment: Lipid accumulation in coculture of young and old human subcutaneous pre-adipocytes (Adipored staining); type: cell-based; settings: 0.01 mg/ml; for %LA (percentage of lipid accumulation): 12 days, coculture of donor cells, respect to coculture control = 100
Description: In vitro effect of PEP-22 and PEP-23 in lipid accumulation in human subcutaneous pre-adipocytes.
Measurement of lipid accumulation in a coculture of young and old adipose cells indirectly evaluates the inhibition of SASP. A pool of old adipose cells has a higher number of senescent cells. When cocultured with young cells, lipid accumulation observed is below the theoretically expected levels due to a senescence induction effect of SASP from old to young adipocytes.
Induction of lipid accumulation by the peptides of the invention is evaluated by lipid fluorescent staining with Adipored® Assay Reagent. The aim of this study is to investigate the capacity of peptide candidates to induce lipid accumulation in human subcutaneous adipocytes, and therefore prevent adipocytes senescence.
Human subcutaneous pre-adipocytes (donors, Cell applications) cells are cocultured in 96-well plates at a density of 4×10^3 cells/well each age in Human Preadipocyte Growth Medium (Sigma). Monoculture of each age are seeded at a density of 8×10^3 cells/well as age lipid accumulation controls. After 24 hours incubation, differentiation of pre-adipocytes into adipocytes is induced by changing medium to fresh Human Preadipocyte Differentiation Medium (Promocell). At the same time, cocultured cells are treated with 0.01 mg/ml of peptides of the invention. Non-treated cocultured cells are used as basal control and monocultured young and old cells as age lipid accumulation controls. After 12 days of treatment and differentiation, cells are stained with Adipored® Assay Reagent (Lonza) following the manufacturer’s instructions. In brief, the plate is washed with Phosphate Buffer Saline (Sigma) and then Adipored® reagent and Hoechst 33342 (Life technologies) are added and incubated for 15 minutes at 37° C. Finally, fluorescence intensity and nuclei number are measured by Operetta (Perkin Elmer). Fluorescence is normalized by cell nuclei and results are represented respect to cocultured basal control. Abbreviations: % LA = Percentage of lipid accumulation; CC = Coculture control; YC = young control; OC = old control.

[2] = test system: human neuroblastoma cell line (SH-SY5Y); experiment: Inhibition of noradrenaline (NA) release from human neuroblastoma cells, ELISA; type: cell-based; settings: SH-SY5Y, respect to basal control, mean of 3 assays
Description: Inhibition of noradrenaline release from human neuroblastoma cells.
Release of neurotransmitters by exocytosis in neuromuscular junctions from peripheral neurons to skeletal muscle allows muscle contraction. Face muscles are subject to said contraction and facial muscle contraction is more frequent around eyes, mouth and forehead than elsewhere in the face. With age, continuous release of neurotransmitters into neuromuscular junctions and decrease of elasticity contribute to the increase of facial wrinkles and permanent expression lines. Compounds able to block or decrease exocytosis on neuromuscular junction sites are thus good candidates for the cosmetic treatment of unaesthetic wrinkles. In vitro induction of the neurotransmitter Noradrenaline (NA) release in a human neuroblastoma cell line (SH-SY5Y) is considered a direct and reliable method for exocytosis measurement. The aim of this study is to evaluate the efficacy of the peptides of the invention on the inhibition of neuronal exocytosis by means of measuring the levels of NA release in SH-SY5Y cells by Enzyme-linked Immunosorbent Assay (ELISA).
SH-SY5Y (ECACC) cells are seeded in 12-well plates at a density of 1×10^6 cells/well. After a 6-day culture, medium is removed from wells and cells are treated for 60 minutes with the peptides of the invention dissolved in Hank’s Balanced Salt Solution (HBSS, Life Technologies) at 1 and 2.5 mg/ml. Cells treated with HBSS alone are used as a basal control. To mobilize NA vesicles, supernatants are removed and 100 nM Tetradecanoylphorbol-13-acetate (TPA, Sigma) is dissolved in the presence of test items in HBSS or dissolved in HBSS alone in the case of the basal control. After this, solutions with TPA are removed and NA release is induced by the addition of 10 µM lonomycin (Epica) with 100 nM TPA dissolved in the presence of test items in HBSS or dissolved in HBSS alone in the case of the basal control. Afterwards, the medium in the wells, containing released NA, is collected and centrifuged. Supernatants obtained are used for quantification of NA by ELISA with noradrenalin ELISA kit (IBL International) following manufacturer’s instructions. In brief, direct sandwich ELISA is performed with a plate pre-coated with an anti-NA antibody. The color obtained after substrate addition is directly proportional to the amount of NA present in each condition tested. Absorbance is read in a microplate absorbance reader (Clariostar™, BMG) at 405 nm. The percentage of NA release for each condition is calculated respect to basal control.

Row | Substance | Lipid accumulation in adipocytes compared to coculture basal control (in words) [1] | %LA (percentage of lipid accumulation) [1] | % Released NA ([2]; 1 mg/ml) | % Released NA ([2]; 2.5 mg/ml)
1 | Ac-L-Arg-L-Arg-D-Gln-L-Met-L-Glu-L-Glu-NH2 [PEP-22] | increase lipid accumulation | 133.9% | 58.9% | 49.0%
2 | Ac-L-Arg-L-Arg-L-Gln-D-Met-L-Glu-L-Glu-NH2 [PEP-23] | increase lipid accumulation | 159.9% | 78.9% | 52.8%
